# Experimental data from patent US11903983B2, “Composition comprising new Lactobacillus salivarius strains and method for the prevention and treatment of otitis and upper respiratory infections” (priority 2018, dated 2024).
# Test system: L. salivarius PS7
# Test: Antibiogram: MIC by VetMIC microdilution and E-test
# Type: cell-based, Lactobacillus salivarius
# Conditions: not given
# Protocol: The suspension was further adjusted to 3×10^5 CFU/ml with LSM, and 100 μl were inoculated to wells of microtiter VetMIC plates for lactic acid bacteria (National Veterinary Institute of Sweden, Uppsala, Sweden). The plates were incubated at 37° C. for 48 h and the MIC was defined as the lowest concentration at which no growth was observed.
# Parallel, minimum inhibitory concentrations (MICs) were also determined by the E-test (AB BIODISK, Solna, Sweden) following the instructions of the manufacturer. Briefly, after overnight incubation, agar cultures were checked for purity. For inoculums preparation, individual colonies were suspended in a sterile glass culture tube containing 5 ml sterile saline (0.85% NaCl solution) until a density corresponding to a McFarland (McF) standard of 0.5 was obtained. A sterile cotton swab was dipped into the standardized inoculum and used to inoculate an agar plate. Inoculated plates were allowed to dry for approximately 15 min before application of the E-test strips with preformed antimicrobial gradients. […] For bacteriostatic agents (e.g., tetracycline, erythromycin and clindamycin), the MIC was read at the point where growth was inhibited by 80% (i.e., the first point of significant inhibition as judged by the naked eye).
# Results from the different antibiotic susceptibility tests were interpreted according to the cut-off levels proposed by the European Food Safety Authority (EFSA, 2012).
row,Compound,antibiotic susceptibility of L. salivarius PS7 according to EFSA cut-off levels
1,CN[C@H](CC(C)C)C(=O)N[C@H]1C(=O)N[C@@H](CC(N)=O)C(=O)N[C@H]2C(=O)N[C@H]3C(=O)N[C@H](C(=O)N[C@H](C(=O)O)c4cc(O)cc(O)c4-c4cc3ccc4O)[C@H](O)c3ccc(c(Cl)c3)Oc3cc2cc(c3O[C@@H]2O[C@H](CO)[C@@H](O)[C@H](O)[C@H]2O[C@H]2C[C@](C)(N)[C@H](O)[C@H](C)O2)Oc2ccc(cc2Cl)[C@H]1O [Vancomycin],intrinsically resistant

# Same assay, conditions: Ligilactobacillus salivarius, PS7, read-out: MICs (L. salivarius PS7)
row,Compound,MIC [µg/mL]
1,CC1(C)S[C@@H]2[C@H](NC(=O)[C@H](N)c3ccccc3)C(=O)N2[C@H]1C(=O)O [Ampicillin],0.5
2,O=C(N[C@H](CO)[C@H](O)c1ccc([N+](=O)[O-])cc1)C(Cl)Cl [Chloramphenicol],2
3,CCC[C@@H]1C[C@@H](C(=O)N[C@@H]([C@H]2O[C@H](SC)[C@H](O)[C@@H](O)[C@H]2O)[C@H](C)Cl)N(C)C1 [Clindamycin],0.5
4,CC[C@H]1OC(=O)[C@H](C)[C@@H](O[C@H]2C[C@@](C)(OC)[C@@H](O)[C@H](C)O2)[C@H](C)[C@@H](O[C@@H]2O[C@H](C)C[C@H](N(C)C)[C@H]2O)[C@](C)(O)C[C@@H](C)C(=O)[C@H](C)[C@@H](O)[C@]1(C)O [Erythromycin],0.12
5,NC[C@H]1O[C@H](O[C@H]2[C@H](O)[C@@H](O[C@H]3O[C@H](CO)[C@@H](O)[C@H](N)[C@H]3O)[C@H](N)C[C@@H]2N)[C@H](O)[C@@H](O)[C@@H]1O [Kanamycin],128
6,CC(=O)NC[C@H]1CN(c2ccc(N3CCOCC3)c(F)c2)C(=O)O1 [Linezolid],1
7,[H]/N=C(/N)N[C@H]1[C@H](O)[C@@H](O)[C@H](O[C@@H]2O[C@@H](C)[C@](O)(C=O)[C@H]2O[C@@H]2O[C@@H](CO)[C@H](O)[C@@H](O)[C@@H]2NC)[C@@H](N/C(N)=N\[H])[C@@H]1O [Streptomycin],32
8,CN[C@H](CC(C)C)C(=O)N[C@H]1C(=O)N[C@@H](CC(N)=O)C(=O)N[C@H]2C(=O)N[C@H]3C(=O)N[C@H](C(=O)N[C@H](C(=O)O)c4cc(O)cc(O)c4-c4cc3ccc4O)[C@H](O)c3ccc(c(Cl)c3)Oc3cc2cc(c3O[C@@H]2O[C@H](CO)[C@@H](O)[C@H](O)[C@H]2O[C@H]2C[C@](C)(N)[C@H](O)[C@H](C)O2)Oc2ccc(cc2Cl)[C@H]1O [Vancomycin],> 128

# Same assay, conditions: antibiotic against L. salivarius PS7
row,Compound,MICs (L. salivarius PS7) [µg/mL]
1,CN(C)[C@@H]1C(=O)C(C(N)=O)=C(O)[C@@]2(O)C(=O)C3=C(O)c4c(O)cccc4[C@@](C)(O)[C@H]3C[C@@H]12 [Tetracyclin],2
2,Gentamicin,0.12
3,Penicillin,0.25
